Two substances from US20210052480A1, “USE OF CYCLIC PEPTIDES IN COSMETIC” (Sederma, priority 2018, published 2021) can be followed below.

Common to all, as to format: cell-based
Experiment [1] deals with HNFs. The experiment in a line: Comparative elastin synthesis by fibroblasts, ELISA. As to conditions: 12.5 ppm; 3 days. A general note: An ELISA detects its analyte on a solid surface through an enzyme-linked reagent.
Experiment [2] concerns HNFs. Kind of experiment: Comparative collagen I synthesis by fibroblasts, ELISA. Conditions: 3 days. The protocol:
HNFs were grown in 24-well plates for 24 hours. The cells were placed in contact or not with test products at different concentrations for 3 days. The collagen synthesis was evaluated by ELISA assay on the culture supernatant and the result was reduced to the number of cells.

Experiment [3] deals with FHNs. The experiment in a line: Comparative collagen I synthesis by fibroblasts, IMF. Conditions: 6 days. The protocol:
FHNs were grown in 24-well plates for 24 hours. The cells were placed in contact with test products (or their excipient) at different concentrations for 6 days. The collagen I produced by the cells was then quantified by immunofluorescence on the fixed mats, and the result was then reduced to the number of cells.

Take “Cyclo(-Met-Leu-Ile-Pro-Pro-Phe-Phe-Val-Ile) (MLIPPFFVI; cyclic; Synthetic peptide or Linum usitatissimum; (1)..(1) M can be oxidized into sulfoxide or sulfone; (1)..(9) Cyclic peptide) [Linusorb B2]”: the “Production of elastin (ELISA method), comparison” value in experiment [1] is on record as “+43%; p <0.05”. The “Collagen I production (ELISA method), comparison” value in experiment [2] (10 ppm) is recorded as “+36.2%; p <0.01”; in experiment [2] (15 ppm), “+39.2%; p <0.01”. Also, the “Production of collagen I (IMF method), comparison” value is reported as “+34.2; dns” in experiment [3] (5 ppm) and “+41.8; p <0.01” in experiment [3] (10 ppm).
In the same order, the values of cyclo(ILVPPFFLI) [Linusorb B3] are “+58%; p <0.05”, −0.4%; nds, “+62.6%; p <0.01”, “+111.1; p <0.01” and “+121.7; p <0.01”.
